Measurements published in patent US20250127787A1, “METHODS FOR TREATING PERIPHERAL NEUROPATHY” (University of Pittsburgh - Of the Commonwealth System of …, priority 2021, published 2025).
Entries after “also recorded” stand apart in the source; their conditions may differ.

What was measured:
[1] = test system: isolated mitochondria from spinal cord (L3-L5) homogenates; experiment: Mitochondrial respiration (respiratory control ratio) in CYP-CIPN rat spinal cord; assay type: in vivo; settings: oral 8-AG
Procedure: (§1) Animals. This study employed female Harlan Sprague Dawley (HSD) rats (3-4 mo; Envigo, Indianapolis, IN) and were divided into the following groups: 1) Control, 2) Cyclophosphamide (CYP, 75 mg/kg i.p. in saline vehicle; administered on days 0, 3 and 6); 3) 8-aminoguanine (8-AG; 5 mg/kg/day in drinking water; beginning 2 weeks prior to CYP and continuing until sacrifice (day 8)). The dose of 8-AG is based on our preliminary and published experiments. […] The investigation conforms to the Guide for the Care and Use of Laboratory Animals published by the US National Institutes of Health (NIH Publication No. 85-23, revised 1996). In addition, all tissues (dorsal root ganglion, spinal cord, peripheral nerves and hindpaw epidermis) were removed from isoflurane anesthetized rats and the tissue was used for various experimental approaches as described below. At the end of tissue removal, animals were sacrificed by thoracotomy.
Mitochondrial Respiration. Homogenates (peripheral nerve and/or spinal cord) were used to measure mitochondrial respiration. Mitochondria were isolated as described earlier with modifications. […] The respiratory control ratio (RCR), a measure of the “tightness of coupling” between electron transport and oxidative phosphorylation, was determined from ratio of state 3 to state 4 rates of respiration. […]

Mst3b = Mst3b expression in CYP-CIPN rat epidermis, Western immunoblotting; assay type: in vivo; settings: 8-AG 5 mg/kg/day in drinking water
Procedure: as §1, with “In addition, all tissues (dorsal root ganglion, spinal cord, peripheral nerves and hindpaw epidermis) were removed from isoflurane anesthetized rats and the tissue was used for various experimental approaches as described below. At the end of tissue removal, animals were sacrificed by thoracotomy.” left out
Western immunoblotting: Following the testing paradigms, rats were deeply anesthetized and tissues (e.g., epidermis, peripheral sciatic nerves, spinal cord segments (L3-L5) and dorsal root ganglia (L3-L5) were removed, and a portion of each preparation was homogenized using Lysing Matrix D in a FASTPREP® 24 instrument (MP Biomedicals, Solon, OH) in HBSS [5 mM KCl, 0.3 mM KH2PO4, 138 mM NaCl, 4 mM NaHO3, 0.3 mM Na2HCO3, 0.3 mM Na2HPO4, 5.6 mM glucose and 10 mM Hepes, pH 7.4 containing complete protease inhibitor cocktail (1 tablet/10 ml, Roche, Indianapolis, IN)] and phosphatase inhibitor cocktail (Sigma, 1:100). […] The protein concentrations of the supernatants were determined using the Pierce BCA protein assay (Thermo Scientific, Rockford, IL). […]

`Nc1nc2[nH]c(N)nc2c(=O)[nH]1` [8-AG, 8-Aminoguanine] was tested, and the “effect on CYP-induced decrease in respiratory control ratio (RCR)” value [1] was “reversed to values similar to Control; also recorded: prevented” and the “effect on CYP-induced decrease in Mst3b expression” value (Mst3b) was “completely restored; also recorded: completely prevented; also recorded: effective in restoring”.
